Test results taken from the NIST ThermoML archive (doi:10.1021/je060017i).

Legend:
[1] = xn = mol fraction of the nth substance listed; settings: 101 kPa, Liquid
[2] = excess molar enthalpy (molar enthalpy of mixing); xn = mol fraction of the nth substance listed; settings: 101 kPa, Liquid, Flow calorimetry

CC1CCCO1 (configuration not stated) [2-methyltetrahydrofuran] + CCCCO
Settings | excess molar enthalpy [kJ/mol] | mass density [kg/m3] | speed of sound [m/s] | viscosity [mPa·s]
[1], 283.15 K, x1 = 0.0447 | – | – | 1292.4 | –
[1], 283.15 K, x1 = 0.0518 | – | – | – | 3.231
[1], 283.15 K, x1 = 0.0539 | – | 820.03 | – | –
[1], 283.15 K, x1 = 0.1047 | – | 822.92 | – | –
[1], 283.15 K, x1 = 0.1048 | – | – | – | 2.67
[1], 283.15 K, x1 = 0.1154 | – | – | 1292.6 | –
[1], 283.15 K, x1 = 0.2068 | – | 828.51 | – | –
[1], 283.15 K, x1 = 0.2123 | – | – | – | 1.958
[1], 283.15 K, x1 = 0.2143 | – | – | 1291.5 | –
[1], 283.15 K, x1 = 0.2451 | – | – | 1291 | –
[1], 283.15 K, x1 = 0.3108 | – | 833.9 | – | –
[1], 283.15 K, x1 = 0.3159 | – | – | – | 1.507
[1], 283.15 K, x1 = 0.4147 | – | 839.04 | – | –
[1], 283.15 K, x1 = 0.4197 | – | – | – | 1.218
[1], 283.15 K, x1 = 0.4221 | – | – | 1286.8 | –
[1], 283.15 K, x1 = 0.4893 | – | 842.56 | – | –
[1], 283.15 K, x1 = 0.5195 | – | – | – | 1.013
[1], 283.15 K, x1 = 0.5204 | – | – | 1284 | –
[1], 283.15 K, x1 = 0.6172 | – | – | 1281.2 | –
[1], 283.15 K, x1 = 0.6195 | – | 848.41 | – | –
[1], 283.15 K, x1 = 0.6211 | – | – | – | 0.865
[1], 283.15 K, x1 = 0.7116 | – | – | – | 0.76
[1], 283.15 K, x1 = 0.7128 | – | – | 1278.1 | –
[1], 283.15 K, x1 = 0.724 | – | 852.97 | – | –
[1], 283.15 K, x1 = 0.8078 | – | – | 1275.2 | –
[1], 283.15 K, x1 = 0.8103 | – | – | – | 0.675
[1], 283.15 K, x1 = 0.8923 | – | 859.92 | – | –
[1], 283.15 K, x1 = 0.8952 | – | – | 1272.2 | –
[1], 283.15 K, x1 = 0.9246 | – | – | – | 0.607
[1], 283.15 K, x1 = 0.9364 | – | – | 1270.3 | –
[1], 283.15 K, x1 = 0.9585 | – | – | – | 0.584
[1], 298.15 K, x1 = 0.0341 | – | – | 1242.6 | –
[1], 298.15 K, x1 = 0.0518 | – | – | – | 2.212
[1], 298.15 K, x1 = 0.102 | – | 811.16 | – | –
[1], 298.15 K, x1 = 0.1048 | – | – | – | 1.914
[1], 298.15 K, x1 = 0.1054 | – | – | 1241.6 | –
[1], 298.15 K, x1 = 0.2068 | – | 816.38 | – | –
[1], 298.15 K, x1 = 0.2085 | – | – | 1238.8 | –
[1], 298.15 K, x1 = 0.2123 | – | – | – | 1.446
[1], 298.15 K, x1 = 0.2968 | – | – | 1235.7 | –
[1], 298.15 K, x1 = 0.3108 | – | 821.37 | – | –
[1], 298.15 K, x1 = 0.3159 | – | – | – | 1.145
[1], 298.15 K, x1 = 0.3535 | – | – | 1233.4 | –
[1], 298.15 K, x1 = 0.4152 | – | 826.08 | – | –
[1], 298.15 K, x1 = 0.4197 | – | – | – | 0.951
[1], 298.15 K, x1 = 0.4283 | – | – | 1230.3 | –
[1], 298.15 K, x1 = 0.4848 | – | 829.16 | – | –
[1], 298.15 K, x1 = 0.5058 | – | – | 1226.8 | –
[1], 298.15 K, x1 = 0.5195 | – | – | – | 0.806
[1], 298.15 K, x1 = 0.6075 | – | – | 1222.2 | –
[1], 298.15 K, x1 = 0.6191 | – | 834.74 | – | –
[1], 298.15 K, x1 = 0.6211 | – | – | – | 0.701
[1], 298.15 K, x1 = 0.7077 | – | – | 1217.6 | –
[1], 298.15 K, x1 = 0.7116 | – | – | – | 0.626
[1], 298.15 K, x1 = 0.7245 | – | 838.88 | – | –
[1], 298.15 K, x1 = 0.8103 | – | – | – | 0.563
[1], 298.15 K, x1 = 0.8111 | – | – | 1212.6 | –
[1], 298.15 K, x1 = 0.8157 | – | 842.28 | – | –
[1], 298.15 K, x1 = 0.8911 | – | 845.05 | – | –
[1], 298.15 K, x1 = 0.8947 | – | – | 1208.3 | –
[1], 298.15 K, x1 = 0.9246 | – | – | – | 0.507
[1], 298.15 K, x1 = 0.9337 | – | – | 1206.1 | –
[1], 298.15 K, x1 = 0.9585 | – | – | – | 0.502
[1], 313.15 K, x1 = 0.0518 | – | – | – | 1.555
[1], 313.15 K, x1 = 0.0519 | – | – | 1184.6 | –
[1], 313.15 K, x1 = 0.1038 | – | 799.46 | – | –
[1], 313.15 K, x1 = 0.1048 | – | – | – | 1.361
[1], 313.15 K, x1 = 0.1237 | – | – | 1181.8 | –
[1], 313.15 K, x1 = 0.2098 | – | 804.34 | – | –
[1], 313.15 K, x1 = 0.2123 | – | – | – | 1.085
[1], 313.15 K, x1 = 0.2168 | – | – | 1177.7 | –
[1], 313.15 K, x1 = 0.3097 | – | – | 1172.9 | –
[1], 313.15 K, x1 = 0.3139 | – | 808.86 | – | –
[1], 313.15 K, x1 = 0.3159 | – | – | – | 0.896
[1], 313.15 K, x1 = 0.4133 | – | – | 1167.2 | –
[1], 313.15 K, x1 = 0.4135 | – | 813 | – | –
[1], 313.15 K, x1 = 0.4197 | – | – | – | 0.759
[1], 313.15 K, x1 = 0.4906 | – | 816.02 | – | –
[1], 313.15 K, x1 = 0.511 | – | – | 1161.3 | –
[1], 313.15 K, x1 = 0.5195 | – | – | – | 0.651
[1], 313.15 K, x1 = 0.6175 | – | 820.8 | – | –
[1], 313.15 K, x1 = 0.6211 | – | – | – | 0.574
[1], 313.15 K, x1 = 0.6561 | – | – | 1152.6 | –
[1], 313.15 K, x1 = 0.7116 | – | – | – | 0.518
[1], 313.15 K, x1 = 0.7256 | – | 824.59 | – | –
[1], 313.15 K, x1 = 0.7265 | – | – | 1148.3 | –
[1], 313.15 K, x1 = 0.8103 | – | – | – | 0.473
[1], 313.15 K, x1 = 0.8151 | – | – | 1142.7 | –
[1], 313.15 K, x1 = 0.8172 | – | 827.71 | – | –
[1], 313.15 K, x1 = 0.8909 | – | 830.17 | – | –
[1], 313.15 K, x1 = 0.8995 | – | – | 1137.1 | –
[1], 313.15 K, x1 = 0.9246 | – | – | – | 0.432
[1], 313.15 K, x1 = 0.9476 | – | – | 1133.5 | –
[1], 313.15 K, x1 = 0.9585 | – | – | – | 0.425
[2], 283.15 K, x1 = 0.054 | 0.099 | – | – | –
[2], 283.15 K, x1 = 0.104 | 0.206 | – | – | –
[2], 283.15 K, x1 = 0.206 | 0.385 | – | – | –
[2], 283.15 K, x1 = 0.308 | 0.548 | – | – | –
[2], 283.15 K, x1 = 0.411 | 0.646 | – | – | –
[2], 283.15 K, x1 = 0.51 | 0.695 | – | – | –
[2], 283.15 K, x1 = 0.609 | 0.693 | – | – | –
[2], 283.15 K, x1 = 0.708 | 0.631 | – | – | –
[2], 283.15 K, x1 = 0.806 | 0.505 | – | – | –
[2], 283.15 K, x1 = 0.907 | 0.291 | – | – | –
[2], 283.15 K, x1 = 0.953 | 0.159 | – | – | –
[2], 298.15 K, x1 = 0.054 | 0.11 | – | – | –
[2], 298.15 K, x1 = 0.104 | 0.22 | – | – | –
[2], 298.15 K, x1 = 0.206 | 0.425 | – | – | –
[2], 298.15 K, x1 = 0.308 | 0.587 | – | – | –
[2], 298.15 K, x1 = 0.411 | 0.694 | – | – | –
[2], 298.15 K, x1 = 0.51 | 0.748 | – | – | –
[2], 298.15 K, x1 = 0.609 | 0.746 | – | – | –
[2], 298.15 K, x1 = 0.708 | 0.678 | – | – | –
[2], 298.15 K, x1 = 0.806 | 0.541 | – | – | –
[2], 298.15 K, x1 = 0.907 | 0.31 | – | – | –
[2], 298.15 K, x1 = 0.953 | 0.17 | – | – | –
[2], 313.15 K, x1 = 0.054 | 0.116 | – | – | –
[2], 313.15 K, x1 = 0.104 | 0.234 | – | – | –
[2], 313.15 K, x1 = 0.206 | 0.455 | – | – | –
[2], 313.15 K, x1 = 0.308 | 0.632 | – | – | –
[2], 313.15 K, x1 = 0.411 | 0.748 | – | – | –
[2], 313.15 K, x1 = 0.51 | 0.806 | – | – | –
[2], 313.15 K, x1 = 0.609 | 0.803 | – | – | –
[2], 313.15 K, x1 = 0.708 | 0.728 | – | – | –
[2], 313.15 K, x1 = 0.806 | 0.578 | – | – | –
[2], 313.15 K, x1 = 0.907 | 0.329 | – | – | –
[2], 313.15 K, x1 = 0.953 | 0.179 | – | – | –
